Measured values taken from patent publication US10280138B2, “Nitric oxide donating derivatives of fluprostenol” (NICOX S.A., priority 2015, dated 2019).

Test system: transiently ocular hypertensive New Zealand white rabbits
Assay: Intraocular pressure (IOP) lowering activity in hypertonic saline-induced IOP increase in rabbits
Assay type: in vivo
Conditions: for Mean IOP changes vs vehicle and baseline, 60 min: 60 min after topical application, hypertonic saline 5% intravitreal; for Mean IOP changes vs vehicle and baseline, 60 min / IOP60 min reduction vs vehicle / Mean IOP changes vs vehicle and baseline, 90 min / Mean IOP changes vs vehicle and baseline, 180 min / Mean IOP changes vs vehicle and baseline, 300 min / Mean IOP changes vs vehicle and baseline, 120 min / Mean IOP changes vs vehicle and baseline, 240 min / Maximal IOP reduc.: dose (%); for IOP60 min reduction vs vehicle / Delta60 min vs parent drug: 60 minutes after topical administration; for Delta60 min vs parent drug: parent drug bimatoprost (A-1, B-1) or fluprostenol isopropyl ester (Comp. 9-13); for Mean IOP changes vs vehicle and baseline, 90 min: 90 min after topical application; for Mean IOP changes vs vehicle and baseline, 90 min / Mean IOP changes vs vehicle and baseline, 180 min / Mean IOP changes vs vehicle and baseline, 300 min: treatment group B (pneumatonometer); for Mean IOP changes vs vehicle and baseline, 180 min: 180 min after topical application; for Mean IOP changes vs vehicle and baseline, 300 min: 300 min after topical application; for Mean IOP changes vs vehicle and baseline, 120 min: 120 min after topical application; for Mean IOP changes vs vehicle and baseline, 120 min / Mean IOP changes vs vehicle and baseline, 240 min: treatment group A (Tono-Pen VET); for Mean IOP changes vs vehicle and baseline, 240 min: 240 min after topical application; for Maximal IOP reduc.: topical application
Source text: Intraocular Pressure (IOP) Lowering Activity in Hypertonic Saline-Induced IOP Increase in Rabbits
Compounds (9), (10), (11), (12) and (13) of the invention and compounds (A-1) and (B-1) disclosed in WO 2009/136281 were directly compared with fluprostenol isopropyl ester and bimatoprost, in the same model of ocular hypertensive rabbit. The hypotensive effects of the two groups of compounds were independently evaluated at different time points and in different sets of hypertensive rabbits.
Test compounds and dose (equimolar to the correspondent parent drug)
Vehicle: buffered aqueous solution pH 6, polyoxyl 40 hydrogenated castor oil 5 mg/ml, tromethamine 10 mg/ml, boric acid 6 mg/ml, mannitol 40 mg/ml, edetate disodium 0.5 mg/ml and benzalkonium chloride 0.15 mg/mL
Male New Zealand white rabbits weighing 2.0-2.5 kg were used in the experiments. The transient increase in IOP was induced by the injection of 0.1 ml of hypertonic saline solution (5%) into the vitreous of both eyes.
(§1) Intraocular pressure (IOP) was determined using a Tono-Pen VET prior to hypertonic saline injection (basal) and at 30, 60, 120 and 240 min thereafter. Vehicle or tested compound dissolved in the vehicle was instilled immediately after the injection of hypertonic saline into the conjunctival pocket. Eyes were randomly assigned to different treatment groups.
One drop of 0.4% oxybuprocaine hydrochloride (Novesine, Sandoz) was instilled in each eye immediately before each set of pressure measurements.
Treatment Groups B (Prior Art Compounds)
Vehicle: tween 80 0.5%, 0.2 mg/ml benzalkonium chloride, 0.3% DMSO in PBS pH 6.7
as §1, with “pneumatonometer” for “Tono-Pen VET”, “90, 180” for “120”, “300” for “240”
The intraocular pressure values measured following topical application of the tested compounds are reported in Table 1 expressed as mean IOP change in treated eyes versus vehicle-treated eyes at same time point and baseline; Table 1 also reports the maximal IOP reduction of the tested compounds expressed in percentage.

Row | SMILES | Mean IOP changes vs vehicle and baseline, 60 min [mmHg] | IOP60 min reduction vs vehicle [%] | Delta60 min vs parent drug | Mean IOP changes vs vehicle and baseline, 90 min [mmHg] | Mean IOP changes vs vehicle and baseline, 180 min [mmHg] | Mean IOP changes vs vehicle and baseline, 300 min [mmHg] | Mean IOP changes vs vehicle and baseline, 120 min [mmHg] | Mean IOP changes vs vehicle and baseline, 240 min [mmHg] | Maximal IOP reduc. [%]
1 | CCNC(=O)CCC/C=C\C[C@@H]1[C@@H](/C=C/[C@@H](O)CCc2ccccc2)[C@H](O)C[C@@H]1O [Bimatoprost, reference compound] | −1.8 ± 2.4 | 1 | 0 mmHg | −2.7 ± 2.0 | 0.8 ± 1.5 | 0.3 ± 2.6 | – | – | –
2 | CC(C)OC(=O)CCC/C=C\C[C@@H]1[C@@H](/C=C/[C@H](COc2cccc(C(F)(F)F)c2)OC(=O)CCCCCO[N+](=O)[O-])[C@H](O)C[C@@H]1O [Comp. (9)] | −6.6 ± 0.9 | 20 | −6.5 mmHg | – | – | – | −8.2 ± 1.2 | −2.0 ± 0.7 | 23 ± 3
3 | CC(C)OC(=O)CCC/C=C\C[C@@H]1[C@@H](/C=C/[C@H](COc2cccc(C(F)(F)F)c2)OC(=O)CCCC(CO[N+](=O)[O-])O[N+](=O)[O-])[C@H](O)C[C@@H]1O (stereo partly drawn) [Comp. (10), (Z)-isopropyl 7-((1R,2R,3R,5S)-2-((3R,E)-3-(5,6-bis(nitrooxy)hexanoyloxy)-4-(3-(trifluoromethyl)phenoxy)but-1-enyl)-3,5-dihydroxycyclopentyl)hept-5-enoate] | −9.2 ± 1.0 | 28 | −9.1 mmHg | – | – | – | −8.8 ± 1.2 | −1.2 ± 0.8 | 26 ± 3
4 | CC(C)OC(=O)CCC/C=C\C[C@@H]1[C@@H](/C=C/[C@H](COc2cccc(C(F)(F)F)c2)OC(=O)COCCO[N+](=O)[O-])[C@H](O)C[C@@H]1O [Comp. (11), (Z)-isopropyl 7-((1R,2R,3R,5S)-3,5-dihydroxy-2-((R,E)-3-(2-(2-nitrooxyethoxy)acetoxy)-4-(3-(trifluoromethyl)phenoxy)but-1-enyl)cyclopentyl)hept-5-enoate] | −9.7 ± 0.8 | 32 | −9.6 mmHg | – | – | – | −7.4 ± 0.9 | −3.2 ± 0.6 | 37 ± 4
5 | CC(C)OC(=O)CCC/C=C\C[C@@H]1[C@@H](/C=C/[C@H](COc2cccc(C(F)(F)F)c2)OC(=O)CCOCC(CO[N+](=O)[O-])O[N+](=O)[O-])[C@H](O)C[C@@H]1O (stereo partly drawn) [Comp. (12), (Z)-isopropyl 7-((1R,2R,3R,5S)-2-((3R,E)-3-(3-(2,3-bis(nitrooxy)propoxy)propanoyloxy)-4-(3-(trifluoromethyl)phenoxy)but-1-enyl)-3,5 dihydroxycyclopentyl)hept-5-enoate] | −7.1 ± 0.8 | 22 | −7.0 mmHg | – | – | – | −9.6 ± 1.0 | −2.9 ± 0.5 | 38 ± 3
6 | O=C(O)CCC/C=C\C[C@@H]1[C@@H](/C=C/[C@H](COc2cccc(C(F)(F)F)c2)OC(=O)CCCC(CO[N+](=O)[O-])O[N+](=O)[O-])[C@H](O)C[C@@H]1O (stereo partly drawn) [Comp. (13), (Z)-7-((1R,2R,3R,5S)-2-((R,E)-3-(5,6-bis(nitrooxy)hexanoyloxy)-4-(3-(trifluoromethyl)phenoxy)but-1-enyl)-3,5-dihydroxycyclopentyl)hept-5-enoic acid] | −8.6 ± 1.2 | 31 | −8.5 mmHg | – | – | – | −6.9 ± 0.9 | −0.3 ± 1.0 | 39 ± 3
7 | CCNC(=O)CCC/C=C\C[C@@H]1[C@@H](/C=C/[C@H](CCc2ccccc2)OC(=O)CCCO[N+](=O)[O-])[C@H](O)C[C@@H]1O [Compound A-1, (1S,2E)-3-{(1R,2R,3 S,5R)-2-[(2Z)-7-(Ethylamino)-7-oxohept-2-en-1-yl]-3,5-dihydroxycyclopentyl}-1-(2-phenylethyl)prop-2-en-1-yl 4-(nitrooxy) butanoate, reference compound] | −0.06 ± 5.2 | 4 | Not effective | 0.03 ± 5.0 | 1.1 ± 2.8 | −1.9 ± 3.2 | – | – | 3 ± 9
8 | CCNC(=O)CCC/C=C\C[C@@H]1[C@@H](/C=C/[C@H](CCc2ccccc2)OC(=O)CCCCCO[N+](=O)[O-])[C@H](O)C[C@@H]1O [Compound B-1, (1S,2E)-3-{(1R,2R,3S,5R)-2-[(2Z)-7-(Ethylamino)-7-oxohept-2-en-1-yl]-3,5-dihydroxycyclopentyl}-1-(2-phenylethyl)prop-2-en-1-yl 6-(nitrooxy) hexanoate, reference compound] | −3.9 ± 2.5 | 7 | −2.1 mmHg | −5.6 ± 2.8 | 5.3 ± 1.5 | −3.9 ± 1.9 | – | – | 10 ± 3
9 | CC(C)OC(=O)CCC/C=C\C[C@@H]1[C@@H](/C=C/[C@@H](O)COc2cccc(C(F)(F)F)c2)[C@H](O)C[C@@H]1O [Fluprostenol isopropyl ester, reference compound] | −0.08 ± 1.2 | 3 | 0 mmHg | – | – | – | −2.0 ± 1.3 | −0.4 ± 0.9 | –
